Results as given in patent publication US11229636B2, “Substituted tetrahydroquinolinone compounds as ROR gamma modulators” (Aurigene Discovery Technologies Limited, priority 2015, dated 2022).

Tests used:
[1] = molecular target: ROR gamma ligand binding domain (Homo sapiens (Human), UniProt P51449); assay: ROR gamma luciferase reporter assay (GAL4-ROR gamma LBD, HEK293 cells); format: cell-based; conditions: 48 hours treatment, read-out: RORγ luciferase Reporter assay: IC50 (nM) (in range)
How it was run: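 HEK293 cells were co-transfected with a GAL4 DBD–RORγ LBD fusion (hRluc vector) and a 9xGAL4 UAS luc2P reporter, then treated with compounds for 48 h. Bright-Glo luminescence was used to derive potency.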

RORγ LBD = RORγ LBD (Homo sapiens (Human), UniProt P51449); assay: ROR gamma radio-ligand binding assay (3H 25-Hydroxycholesterol competitive displacement, dextran charcoal method); conditions: for inhibition at 1 µM: 1 μM compound; for inhibition at 10 µM: 10 μM compound; for IC50: in range
How it was run: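 Human RORγ LBD (aa 247–497) was expressed as a GST fusion in E. coli and purified. For binding, 300 ng protein, 5 nM ³H-25-hydroxycholesterol and compound were incubated for 30 min at room temperature in 50 mM HEPES pH 7.5, 150 mM NaCl, 0.01% BSA and 5 mM MgCl2. After dextran-charcoal separation, the supernatant was counted and 10-point curves were fitted by variable-slope sigmoid.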

[2] = system: EL-4 murine lymphoma cell line; conditions: cited from earlier work

Sequence of RORγ LBD (P51449 268-518): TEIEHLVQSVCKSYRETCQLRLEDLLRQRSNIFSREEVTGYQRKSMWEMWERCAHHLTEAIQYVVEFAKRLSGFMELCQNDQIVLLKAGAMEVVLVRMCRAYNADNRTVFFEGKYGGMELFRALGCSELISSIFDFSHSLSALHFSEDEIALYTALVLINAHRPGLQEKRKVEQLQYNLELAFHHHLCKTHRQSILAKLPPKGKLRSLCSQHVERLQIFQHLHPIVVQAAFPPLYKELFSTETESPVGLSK
Sequence of ROR gamma ligand binding domain (P51449 269-508): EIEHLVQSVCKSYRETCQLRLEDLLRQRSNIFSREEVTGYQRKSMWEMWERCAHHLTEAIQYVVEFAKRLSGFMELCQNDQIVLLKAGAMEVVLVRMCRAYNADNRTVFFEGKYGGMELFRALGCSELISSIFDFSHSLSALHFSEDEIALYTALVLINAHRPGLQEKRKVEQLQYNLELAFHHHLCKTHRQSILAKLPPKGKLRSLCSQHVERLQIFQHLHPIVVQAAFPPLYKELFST

| Structure (SMILES) | IC50 [1] | inhibition at 1 µM (RORγ LBD) | inhibition at 10 µM (RORγ LBD) | IC50 (RORγ LBD) | synthesis of IL-17 [2] |
| --- | --- | --- | --- | --- | --- |
| CCS(=O)(=O)c1ccc(CC(=O)Nc2ccc3c(n2)CCC(C)(c2ccnc(C(C)C)n2)C3=O)cc1 (stereo not drawn) [Compound 50, 2-(4-(ethylsulfonyl)phenyl)-N-(6-(2-isopropylpyrimidin-4-yl)-6-methyl-5-oxo-5,6,7,8-tetrahydroquinolin-2-yl)acetamide] | 100 to 500 nM | 91% | 90% | < 150 nM | – |
| CCS(=O)(=O)c1ccc(CC(=O)Nc2ccc3c(n2)CCC(C)(c2ncc(OC)cn2)C3=O)cc1 (stereo not drawn) [Compound 56, 2-(4-(ethylsulfonyl)phenyl)-N-(6-(5-methoxypyrimidin-2-yl)-6-methyl-5-oxo-5,6,7,8-tetrahydroquinolin-2-yl)acetamide] | < 100 nM | 96% | 94% | < 150 nM | – |
| CCS(=O)(=O)c1ccc(CC(=O)Nc2ccc3c(n2)CCC(C)(c2ccc(C(C)C)nn2)C3=O)cc1 (stereo not drawn) [Compound 62, 2-(4-(ethylsulfonyl)phenyl)-N-(6-(6-isopropylpyridazin-3-yl)-6-methyl-5-oxo-5,6,7,8-tetrahydroquinolin-2-yl)acetamide] | > 500 nM | 96% | 91% | < 150 nM | – |
| OC(c1ccc(-c2ccc(CN3CCN(Cc4ccncc4)CC3)cc2)c(F)c1)(C(F)(F)F)C(F)(F)F [SR2211] | – | – | – | – | suppress the synthesis of IL-17 |

Further lines, with some results ahead:

| IC50 [1] | inhibition at 1 µM (RORγ LBD) | inhibition at 10 µM (RORγ LBD) | IC50 (RORγ LBD) | Structure (SMILES) | synthesis of IL-17 [2] |
| --- | --- | --- | --- | --- | --- |
| > 500 nM | 86% | 90% | 150 to 300 nM | CCS(=O)(=O)c1ccc(CC(=O)Nc2cc(C)c3c(n2)CCC(C)(c2ccc(O)cn2)C3=O)cc1 (stereo not drawn) [Compound 88, 2-(4-(ethylsulfonyl)phenyl)-N-(6-(5-hydroxypyridin-2-yl)-4,6-dimethyl-5-oxo-5,6,7,8-tetrahydroquinolin-2-yl)acetamide] | – |
| > 500 nM | 53% | 79% | > 300 nM | Cc1cc(NC(=O)Cc2ccc(S(C)(=O)=O)cc2)nc2c1C(=O)C(C)(c1ncccc1O)CC2 (stereo not drawn) [Compound 89, N-(6-(3-hydroxypyridin-2-yl)-4,6-dimethyl-5-oxo-5,6,7,8-tetrahydroquinolin-2-yl)-2-(4-(methylsulfonyl)phenyl)acetamide] | – |
| > 500 nM | 57% | 84% | 150 to 300 nM | CCS(=O)(=O)c1ccc(CC(=O)Nc2ccc3c(n2)CC(C)(C)C(c2ccc(O)cn2)C3=O)cc1 (stereo not drawn) [Compound 90, 2-(4-(ethylsulfonyl)phenyl)-N-(6-(5-hydroxypyridin-2-yl)-7,7-dimethyl-5-oxo-5,6,7,8-tetrahydroquinolin-2-yl)acetamide] | – |
| > 500 nM | 36% | 100% | > 300 nM | CCS(=O)(=O)c1ccc(CC(=O)Nc2ccc3c(n2)CC(C)C(c2ncccc2O)C3=O)cc1 (stereo not drawn) [Compound 91, 2-(4-(ethylsulfonyl)phenyl)-N-(6-(3-hydroxypyridin-2-yl)-7-methyl-5-oxo-5,6,7,8-tetrahydroquinolin-2-yl)acetamide] | – |
| 100 to 500 nM | 96% | 80% | < 150 nM | CCS(=O)(=O)c1ccc(CC(=O)Nc2ccc3c(n2)CCC(C)(c2ncc(Cl)n4ccnc24)C3=O)cc1 (stereo not drawn) [Compound 92, N-(6-(5-chloroimidazo[1,2-a]pyrazin-8-yl)-6-methyl-5-oxo-5,6,7,8-tetrahydroquinolin-2-yl)-2-(4-(ethylsulfonyl)phenyl)acetamide] | – |
